Here are results for 24 molecules from patent US20240150362A1, “Substituted Pyrrolotriazines” (Molecure S.A., priority 2022, published 2024).

As usually defined, the inhibition is the change of the read-out against control, counted positive when it falls. The low end stands for a weak effect, the high end for a strong effect.

Structures can show the parent of a compound that is named as a salt.

For the first assay, the target named is T1, full-length USP7 (Homo sapiens, UniProt Q93009).
T1 construct: A 45 μl reaction volume containing full-length USP7 (0.5-1.0 nM)
T1 sequence (Q93009 whole entry): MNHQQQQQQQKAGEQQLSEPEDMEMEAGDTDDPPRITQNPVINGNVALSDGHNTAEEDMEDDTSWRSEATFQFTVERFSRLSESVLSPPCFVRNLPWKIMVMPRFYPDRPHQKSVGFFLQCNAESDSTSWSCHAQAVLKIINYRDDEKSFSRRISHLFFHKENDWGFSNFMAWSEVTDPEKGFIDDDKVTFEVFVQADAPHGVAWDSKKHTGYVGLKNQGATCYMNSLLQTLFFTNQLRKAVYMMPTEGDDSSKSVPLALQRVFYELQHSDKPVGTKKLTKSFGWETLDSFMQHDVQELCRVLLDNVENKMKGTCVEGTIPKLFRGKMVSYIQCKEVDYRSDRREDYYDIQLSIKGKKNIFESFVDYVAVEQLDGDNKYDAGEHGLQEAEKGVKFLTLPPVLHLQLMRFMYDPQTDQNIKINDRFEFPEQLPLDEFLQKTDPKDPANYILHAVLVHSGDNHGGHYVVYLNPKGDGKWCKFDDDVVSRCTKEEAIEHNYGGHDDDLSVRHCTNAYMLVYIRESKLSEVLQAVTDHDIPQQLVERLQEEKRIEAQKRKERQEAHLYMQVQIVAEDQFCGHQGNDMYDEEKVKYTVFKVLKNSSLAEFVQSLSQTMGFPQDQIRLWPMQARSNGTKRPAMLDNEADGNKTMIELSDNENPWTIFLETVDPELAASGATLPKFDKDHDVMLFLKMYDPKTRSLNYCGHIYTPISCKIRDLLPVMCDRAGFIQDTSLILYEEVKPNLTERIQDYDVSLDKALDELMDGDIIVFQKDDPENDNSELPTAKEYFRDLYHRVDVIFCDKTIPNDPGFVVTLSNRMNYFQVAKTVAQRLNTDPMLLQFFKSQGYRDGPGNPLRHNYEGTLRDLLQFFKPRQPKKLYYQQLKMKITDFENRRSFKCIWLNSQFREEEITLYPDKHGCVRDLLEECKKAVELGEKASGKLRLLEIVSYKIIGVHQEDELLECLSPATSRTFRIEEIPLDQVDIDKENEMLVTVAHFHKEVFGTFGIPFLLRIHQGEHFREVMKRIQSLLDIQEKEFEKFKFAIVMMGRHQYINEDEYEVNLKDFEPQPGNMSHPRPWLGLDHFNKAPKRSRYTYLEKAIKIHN
The experiment in a line: Enzymatic assay to determine % inhibition of USP7 activity at 1 μM test compound (Ubiquitin-Rhodamine 110 cleavage). Type of assay: biochemical. Particulars: 1 μM of the test compound; given where IC50 has not been determined yet; mean of two repetitions. The protocol: Enzymatic Assay to Determine % Value of Inhibition […] Activity at 1 μM […]
A 45 μl reaction volume containing full-length USP7 (0.5-1.0 nM) in 50 mM HEPES pH 7.5, 150 mM NaCl, 2 mM DTT, 1 mg/ml BSA and 0.05% Tween20 (DUB assay buffer) was assembled in wells of 96 well half area black flat bottom plates. All test compounds were first dissolved to 30 mM stocks in DMSO and subsequently introduced to enzyme 15 min after USP7 incubation with DTT at room temperature. The final concentration of tested compounds was 1 μM. The enzymatic reaction was started by adding 0.5 μM Ubiquitin-Rhodamine 110 (final concentration) and allowed to proceed for 30-60 min at 25° C., 250 RPM shaking before Rhodamine fluorescence (485 nm excitation/535 nm emission) was measured using Tecan Spark M10 plate reader. Percentage of inhibition at 1 μM was determined by the mean of two repetitions for these concentrations using Microsoft Excel software.
`Cc1cc(Cl)cc(-c2ncnn3cc(CN4C(=O)C5C(C4=O)C5(C)C)cc23)c1O[C@@H]1CN[C@H](C(=O)O)C1` (stereo partly drawn) [Example 7, (2S,4S)-4-(4-chloro-2-(6-((6,6-dimethyl-2,4-dioxo-3-azabicyclo[3.1.0]hexan-3-yl)methyl)pyrrolo[2,1-f][1,2,4]triazin-4-yl)-6-methylphenoxy)pyrrolidine-2-carboxylic acid hydrochloride] came in with an inhibition at 1 µM of less than 20%.
The same measure, in the same setting: to `Cc1cc(Cl)cc(-c2ncnn3cc(CN4C(=O)C5C(C4=O)C5(C)C)cc23)c1O[C@@H]1CC[C@@H](C)NC1` (stereo partly drawn) [Example 3, 3-((4-(5-chloro-3-methyl-2-(((3R,6R)-6-methylpiperidin-3-yl)oxy)phenyl)pyrrolo[2,1-f][1,2,4]triazin-6-yl)methyl)-6,6-dimethyl-3-azabicyclo[3.1.0]hexane-2,4-dione hydrochloride] belongs 20 to 49%; to `Cc1c(CN2C(=O)C3C(C2=O)C3(C)C)cn2ncnc(-c3cc(Cl)cc4ccn(CC5(F)CCNCC5)c34)c12` (stereo not drawn) [Example 21, 3-((4-(5-chloro-1-((4-fluoropiperidin-4-yl)methyl)-1H-indol-7-yl)-5-methylpyrrolo[2,1-f][1,2,4]triazin-6-yl)methyl)-6,6-dimethyl-3-azabicyclo[3.1.0]hexane-2,4-dione hydrochloride], 50 to 70%.
The same measure, in the same setting: under `CC1(C)C2C(=O)N(Cc3cc4c(-c5cc(C(F)(F)F)cc6ccn(C7CCNC7)c56)ncnn4c3)C(=O)C21` (stereo not drawn) [Example 5, 6,6-dimethyl-3-((4-(1-(pyrrolidin-3-yl)-5-(trifluoromethyl)-1H-indol-7-yl)pyrrolo[2,1-f][1,2,4]triazin-6-yl)methyl)-3-azabicyclo[3.1.0]hexane-2,4-dione 2,2,2-trifluoroacetate] stands 20 to 49%; under `CC1(C)C2C(=O)N(Cc3cc4c(-c5cc(Cl)cc6c5N(C5CNC5)CCC6)ncnn4c3)C(=O)C21` (stereo not drawn) [Example 69, 3-((4-(1-(azetidin-3-yl)-6-chloro-1,2,3,4-tetrahydroquinolin-8-yl)pyrrolo[2,1-f][1,2,4]triazin-6-yl)methyl)-6,6-dimethyl-3-azabicyclo[3.1.0]hexane-2,4-dione hydrochloride], greater than 70%; under `COC(=O)c1cc(-c2ncnn3cc(CN4C(=O)C5C(C4=O)C5(C)C)cc23)c2c(ccn2C[C@@H]2CNCCO2)c1` (stereo partly drawn) [Example 34, methyl 7-(6-((6,6-dimethyl-2,4-dioxo-3-azabicyclo[3.1.0]hexan-3-yl)methyl)pyrrolo[2,1-f][1,2,4]triazin-4-yl)-1-(((S)-morpholin-2-yl)methyl)-1H-indole-5-carboxylate 2,2,2-trifluoroacetate], less than 20%.
Same read-out and setting: to `Cc1cc(Cl)cc(-c2ncnn3cc(Cn4c(=O)ccn(C)c4=O)cc23)c1C1=CCNCC1` [Example 88, 3-((4-(5-chloro-3-methyl-2-(1,2,3,6-tetrahydropyridin-4-yl)phenyl)pyrrolo[2,1-f][1,2,4]triazin-6-yl)methyl)-1-methylpyrimidine-2,4(1H,3H)-dione hydrochloride] belongs less than 20%; to `Cc1cc(Cl)cc(-c2ncnn3cc(CN4C(=O)C5C(C4=O)C5(C)C)cc23)c1OC[C@H]1CNCCO1` (stereo partly drawn) [Example 52, 3-((4-(5-chloro-3-methyl-2-(((R)-morpholin-2-yl)methoxy)phenyl)pyrrolo[2,1-f][1,2,4]triazin-6-yl)methyl)-6,6-dimethyl-3-azabicyclo[3.1.0]hexane-2,4-dione hydrochloride], 20 to 49%; to `CC1(C)C2C(=O)N(Cc3cc4c(-c5cc(Cl)ccc5N5CC[C@H](N)C5)ncnn4c3)C(=O)C21` (stereo partly drawn) [Example 86, 3-((4-(2-((S)-3-aminopyrrolidin-1-yl)-5-chlorophenyl)pyrrolo[2,1-f][1,2,4]triazin-6-yl)methyl)-6,6-dimethyl-3-azabicyclo[3.1.0]hexane-2,4-dione hydrochloride], 20 to 49%.
Molecule `CC1(C)C2C(=O)N(Cc3cc4c(-c5cc(Cl)cc6ccn(CC7CNCC(F)(F)C7)c56)ncnn4c3)C(=O)C21` (stereo not drawn) [Example 26, 3-((4-(5-chloro-1-((5,5-difluoropiperidin-3-yl)methyl)-1H-indol-7-yl)pyrrolo[2,1-f][1,2,4]triazin-6-yl)methyl)-6,6-dimethyl-3-azabicyclo[3.1.0]hexane-2,4-dione dihydrochloride] registered an inhibition at 1 µM of 20 to 49%.
Still for that read-out and setting: under `CC1(C)C2C(=O)N(Cc3cc4c(-c5cc(Cl)ccc5N5CC6CNCC6C5)ncnn4c3)C(=O)C21` (stereo not drawn) [Example 97, 3-((4-(5-chloro-2-(hexahydropyrrolo[3,4-c]pyrrol-2(1H)-yl)phenyl)pyrrolo[2,1-f][1,2,4]triazin-6-yl)methyl)-6,6-dimethyl-3-azabicyclo[3.1.0]hexane-2,4-dione hydrochloride] stands less than 20%.
The same measure, in the same setting: under `Cc1cc(Cl)cc(-c2ncnn3cc(Cn4c(=O)ccn(CC(=O)O)c4=O)cc23)c1C[C@@H]1CNCCO1` (single isomer, unassigned) [Example 125, hydrochloride] stands 20 to 49%; under `Cc1cc(Cl)cc(-c2ncnn3cc(CO)cc23)c1O[C@H]1CCCNC1` [Example 17, (S)-(4-(5-chloro-3-methyl-2-(piperidin-3-yloxy)phenyl)pyrrolo[2,1-f][1,2,4]triazin-6-yl)methanol hydrochloride], less than 20%; under `Cc1cc(Cl)cc(-c2ncnn3cc(CN4C(=O)C5C(C4=O)C5(C)C)cc23)c1OC1CCNCC1` (stereo not drawn) [Example 4, 3-((4-(5-chloro-3-methyl-2-(piperidin-4-yloxy)phenyl)pyrrolo[2,1-f][1,2,4]triazin-6-yl)methyl)-6,6-dimethyl-3-azabicyclo[3.1.0]hexane-2,4-dione hydrochloride], 50 to 70%.
In turn, `Cn1ccc(=O)n(Cc2cc3c(-c4cc(Cl)cc(F)c4CC4CNCCO4)ncnn3c2)c1=O` (stereo not drawn) [Example 116, 3-((4-(5-chloro-3-fluoro-2-(morpholin-2-ylmethyl)phenyl)pyrrolo[2,1-f][1,2,4]triazin-6-yl)methyl)-1-methylpyrimidine-2,4(1H,3H)-dione hydrochloride] gave an inhibition at 1 µM of 50 to 70%.
As to `O=c1ccn(CC(F)(F)F)c(=O)n1Cc1cc2c(-c3cc(Cl)cc4c3N(C3CCNC3)CCC4)ncnn2c1` (stereo not drawn) [Example 64, 3-((4-(6-chloro-1-(pyrrolidin-3-yl)-1,2,3,4-tetrahydroquinolin-8-yl)pyrrolo[2,1-f][1,2,4]triazin-6-yl)methyl)-1-(2,2,2-trifluoroethyl)pyrimidine-2,4(1H,3H)-dione hydrochloride], the inhibition at 1 µM was greater than 70%.
`CC1(C)C2C(=O)N(Cc3cc4c(-c5cc(Cl)ccc5N5CCNCC5)ncnn4c3)C(=O)C21` (stereo not drawn) [Example 85, 3-((4-(5-chloro-2-(piperazin-1-yl)phenyl)pyrrolo[2,1-f][1,2,4]triazin-6-yl)methyl)-6,6-dimethyl-3-azabicyclo[3.1.0]hexane-2,4-dione hydrochloride] returned an inhibition at 1 µM of less than 20%.
`CC1(C)C2C(=O)N(Cc3cc4c(-c5cc(Cl)ccc5N5CC[C@@H](N)C5)ncnn4c3)C(=O)C21` (stereo partly drawn) [Example 87, 3-((4-(2-((R)-3-aminopyrrolidin-1-yl)-5-chlorophenyl)pyrrolo[2,1-f][1,2,4]triazin-6-yl)methyl)-6,6-dimethyl-3-azabicyclo[3.1.0]hexane-2,4-dione hydrochloride]: the inhibition at 1 µM is 20 to 49%.
Still for that read-out and setting: to `O=c1cc[nH]c(=O)n1Cc1cc2c(-c3cc(Cl)cc4ccn(CC5(F)CCNCC5)c34)nc(Cl)nn2c1` [Example 123, 3-((2-chloro-4-(5-chloro-1-((4-fluoropiperidin-4-yl)methyl)-1H-indol-7-yl)pyrrolo[2,1-f][1,2,4]triazin-6-yl)methyl)pyrimidine-2,4(1H,3H)-dione hydrochloride] belongs less than 20%; to `Cc1cc(Cl)cc(-c2ncnn3cc(CN4C(=O)C5C(C4=O)C5(C)C)cc23)c1C(=O)N1CC(F)(F)C1` (stereo not drawn) [Example 8, 3-((4-(5-chloro-2-(3,3-difluoroazetidine-1-carbonyl)-3-methylphenyl)pyrrolo[2,1-f][1,2,4]triazin-6-yl)methyl)-6,6-dimethyl-3-azabicyclo[3.1.0]hexane-2,4-dione hydrochloride], 20 to 49%; to `C[C@H]1CNCC(Cc2c(F)cc(Cl)cc2-c2ncnn3cc(Cn4c(=O)ccn(C)c4=O)cc23)O1` (single isomer, unassigned) [Example 120, hydrochloride], greater than 70%.
Still for that read-out and setting: under `Cc1cc(Cl)cc(-c2ncnn3cc(C(N)=O)cc23)c1O[C@H]1CCCNC1` [Example 18, (S)-4-(5-chloro-3-methyl-2-(piperidin-3-yloxy)phenyl)pyrrolo[2,1-f][1,2,4]triazine-6-carboxamide hydrochloride] stands less than 20%; under `CC1(C)NC(=O)N(Cc2cc3c(-c4cc(Cl)cc5ccn(C[C@@H]6CNCCO6)c45)ncnn3c2)C1=O` [Example 36, (S)-3-((4-(5-chloro-1-(morpholin-2-ylmethyl)-1H-indol-7-yl)pyrrolo[2,1-f][1,2,4]triazin-6-yl)methyl)-5,5-dimethylimidazolidine-2,4-dione hydrochloride], 50 to 70%.

The same assay, now with this note: 1 μM of the test compound; given where IC50 has not been determined yet; mean of two repetitions; hydrochloride, 1 µM.
`Cc1cc(Cl)cc(-c2ncnn3cc(CN4C(=O)C5C(C4=O)C5(C)C)cc23)c1OC(C)[C@@H]1CNCCO1.Cl` (single isomer, unassigned) [Example 77]: the USP7 % inhibition result was “D* (D*: <20% inhibition)”.
